Experiment [1] concerns Mycobacterium tuberculosis. The experiment can be described thus: Antibacterial activity against Mycobacterium tuberculosis H37Rv assessed as MIC of kanamycin A at 8.2 uM incubated for 24 hrs followed by kanamycin A addition measured after 6 days by alamarblue dye based assay. Type of experiment: functional. Particulars: 168 h, time 7 day. On the technique in general: Alamar Blue is a resazurin reagent that responds to reducing activity.

In experiment [2] the test system is Mycobacterium tuberculosis. The experiment can be described thus: Antibacterial activity against Mycobacterium tuberculosis H37Ra assessed as bacterial growth inhibition incubated 2 to 3 weeks by resazurin dye based assay. Conditions: time 2-3 weeks. Type of experiment: functional.
In experiment [3] the target is T1, N-acetyltransferase Eis (Mycobacterium tuberculosis (strain ATCC 25618 / H37Rv), UniProt P9WFK7).
T1 sequence (P9WFK7 whole entry): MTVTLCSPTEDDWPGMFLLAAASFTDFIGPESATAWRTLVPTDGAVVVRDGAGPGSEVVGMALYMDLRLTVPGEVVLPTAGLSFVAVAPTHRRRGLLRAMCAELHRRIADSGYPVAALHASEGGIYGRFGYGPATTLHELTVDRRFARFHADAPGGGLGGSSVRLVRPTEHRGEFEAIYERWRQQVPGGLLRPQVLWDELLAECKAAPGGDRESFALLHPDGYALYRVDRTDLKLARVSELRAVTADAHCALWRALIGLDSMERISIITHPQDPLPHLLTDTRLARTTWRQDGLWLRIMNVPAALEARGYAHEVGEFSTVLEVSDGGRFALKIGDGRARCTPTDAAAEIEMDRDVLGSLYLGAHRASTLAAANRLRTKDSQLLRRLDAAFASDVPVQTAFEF
The experiment can be described thus: Inhibition of wild-type Mycobacterium tuberculosis Eis expressed in Escherichia coli BL21(DE3) cells incubated for 5 mins by Ellman's method.

Experiment [4] concerns Mycobacteroides abscessus. Put plainly: Antibacterial activity against Mycobacterium abscessus ATCC 19977 assessed as bacterial growth inhibition incubated for 2 to 3 weeks by resazurin dye based assay. Type of experiment: functional. Conditions: time 2-3 weeks.
Experiment [5] deals with Mycobacterium intracellulare. The experiment can be described thus: Antibacterial activity against Mycobacterium intracellulare ATCC 13950 assessed as bacterial growth inhibition incubated for 2 to 3 weeks by resazurin dye based assay. Type of experiment: functional. Particulars: time 2-3 weeks.
For experiment [6], the system named is Mycobacterium avium. Put plainly: Antibacterial activity against Mycobacterium avium ATCC 25291 assessed as bacterial growth inhibition incubated for 2 to 3 weeks by resazurin dye based assay. Type of experiment: functional. Conditions: time 2-3 weeks.
The test system of experiment [7] is Mycolicibacterium smegmatis. Put plainly: Antibacterial activity against Mycobacterium smegmatis mc2 122 assessed as bacterial growth inhibition incubated for 2 to 3 weeks by resazurin dye based assay. It is filed as functional. Conditions: time 2-3 weeks.
Experiment [8] concerns Mycobacterium parascrofulaceum. The experiment can be described thus: Antibacterial activity against Mycobacterium parascrofulaceum ATCC BAA-614 assessed as bacterial growth inhibition incubated for 2 to 3 weeks by resazurin dye based assay. Type of experiment: functional. Particulars: time 2-3 weeks.
Experiment [9] relates to Mycobacterium tuberculosis. Put plainly: Antibacterial activity against Mycobacterium tuberculosis mc2 6230 assessed as bacterial growth inhibition incubated 2 to 3 weeks by resazurin dye based assay. Type of experiment: functional. Conditions: time 2-3 weeks.
The subject of experiment [10] is Mycobacterium tuberculosis. The experiment can be described thus: Antibacterial activity against Mycobacterium tuberculosis H37Rv assessed as MIC of kanamycin A at 43.8 uM incubated for 24 hrs followed by kanamycin A addition measured after 6 days by alamarblue dye based assay. It is filed as functional. Particulars: 168 h, time 7 day.
The subject of experiment [11] is Mycobacterium tuberculosis. The experiment can be described thus: Antibacterial activity against Mycobacterium tuberculosis K204 assessed as MIC of kanamycin A at 71.7 uM incubated for 24 hrs followed by kanamycin A addition measured after 6 days by alamarblue dye based assay. It is filed as functional, organism-based. Particulars: time 7.0 day.
In experiment [12] the test system is Mycobacterium tuberculosis. Put plainly: Antibacterial activity against Mycobacterium tuberculosis H37Rv assessed as MIC of kanamycin A at 100 uM incubated for 24 hrs followed by kanamycin A addition measured after 6 days by alamarblue dye based assay. Type of experiment: functional. Conditions: time 7.0 day.
Experiment [13] concerns Mycobacterium tuberculosis. The experiment can be described thus: Antibacterial activity against Mycobacterium tuberculosis H37Rv assessed as MIC of kanamycin A at 71.7 uM incubated for 24 hrs followed by kanamycin A addition measured after 6 days by alamarblue dye based assay. Type of experiment: functional, organism-based. Particulars: time 7.0 day.
Experiment [14] concerns Mycobacterium tuberculosis. Put plainly: Antibacterial activity against Mycobacterium tuberculosis H37Rv assessed as MIC of kanamycin A at 19.7 uM incubated for 24 hrs followed by kanamycin A addition measured after 6 days by alamarblue dye based assay. It is filed as functional. Conditions: 168 h, time 7 day.
Experiment [15] relates to Mycobacterium tuberculosis. Put plainly: Antibacterial activity against Mycobacterium tuberculosis H37Rv assessed as MIC of kanamycin A at 7.9 uM incubated for 24 hrs followed by kanamycin A addition measured after 6 days by alamarblue dye based assay. Type of experiment: functional. Particulars: 168 h, time 7 day.
Experiment [16] relates to Mycobacterium tuberculosis. Put plainly: Antibacterial activity against Mycobacterium tuberculosis H37Rv assessed as MIC of kanamycin A at 5 uM incubated for 24 hrs followed by kanamycin A addition measured after 6 days by alamarblue dye based assay. Type of experiment: functional. Particulars: 168 h, time 7 day.
The test system of experiment [17] is Mycobacterium tuberculosis. Put plainly: Antibacterial activity against Mycobacterium tuberculosis H37Rv assessed as MIC of kanamycin A at 55.8 uM incubated for 24 hrs followed by kanamycin A addition measured after 6 days by alamarblue dye based assay. It is filed as functional. Conditions: 168 h, time 7 day.
The subject of experiment [18] is Mycobacterium tuberculosis. Put plainly: Antibacterial activity against Mycobacterium tuberculosis mc2 6230 K204 assessed as MIC of kanamycin A at 25 uM incubated for 24 hrs followed by kanamycin A addition measured after 6 days by alamarblue dye based assay. Particulars: time 7 day. Type of experiment: functional.
Experiment [19] deals with Mycobacterium tuberculosis. The experiment can be described thus: Antibacterial activity against Mycobacterium tuberculosis K204 assessed as MIC of kanamycin A at 55.8 uM incubated for 24 hrs followed by kanamycin A addition measured after 6 days by alamarblue dye based assay. Conditions: K204, 168 h, time 7 day. It is filed as functional.
Experiment [20] deals with T1, N-acetyltransferase Eis. Put plainly: Binding affinity to wild-type Mycobacterium tuberculosis Eis expressed in Escherichia coli BL21(DE3) cells assessed as inhibition constant incubated for 5 mins by Ellman's method based Michaelis-Menten analysis.
The subject of experiment [21] is Mycobacterium tuberculosis. Put plainly: Antibacterial activity against Mycobacterium tuberculosis mc2 6230 assessed as MIC of kanamycin A at 25 uM incubated for 24 hrs followed by kanamycin A addition measured after 6 days by alamarblue dye based assay. It is filed as functional. Conditions: mc2 6230, 168 h, time 7 day.

Structures are written as SMILES. Converted amounts (≈) assume the structure as drawn. The source made the active and inactive calls. Bounds are passed on as bounds.

A word on the MIC: it is the smallest concentration in the dilution series that meets the test's criterion for growth inhibition. What is called IC50 is the midpoint of a concentration-inhibition curve. Low readings indicate inhibition by little substance, high ones a need for much substance. What is called Ki is a dissociation constant, usually derived from enzyme kinetics or from competition with a known ligand.

With `Fc1ccc(COc2ccccc2CNCc2cccnc2)cc1`, the MIC in experiment [1] was 2.5 µg/mL; in experiment [2], 125 µM (≈ 40.3 µg/mL); in [4] it was above 62.5 µM; in experiment [5] it was above 62.5 µM; in [6], above 62.5 µM; in [7], above 62.5 µM. Moreover, the values for the MIC in experiment [8] and in experiment [9] were above 62.5 µM and above 100 µM, respectively. For the same compound, 10 µM corresponded to half-maximal inhibition in [3] (IC50).

With `Fc1ccc(COc2ccccc2CNCc2ccncc2)cc1`, the results for the MIC in [2], in experiment [10] and in [9] were above 250 µM, 2.5 µg/mL and 50 µM (≈ 16.1 µg/mL), respectively. In addition, in experiment [3], the IC50 is around 100 µM.

On to `Fc1ccc(COc2ccc(CNCc3cccnc3)cc2)cc1`, for which the MIC in [2] is 31.3 µM (≈ 10.1 µg/mL); in experiment [4], 31.3 µM (≈ 10.1 µg/mL); in experiment [5], 31.3 µM (≈ 10.1 µg/mL); in experiment [6], above 62.5 µM; in [9], 50 µM (≈ 16.1 µg/mL). In addition, the IC50 in experiment [3] was determined as 3.9 µM. In addition, the outcome in [11], in experiment [12] and in experiment [13] was Active.

Take `Fc1ccc(COc2ccc(CNCc3ccncc3)cc2)cc1`: the MIC was 7.8 µM (≈ 2.51 µg/mL) in [2]; at most 1.25 µg/mL in experiment [14]; above 62.5 µM in experiment [4]; 15.6 µM (≈ 5.03 µg/mL) in experiment [5]; above 62.5 µM in experiment [6]; 50 µM (≈ 16.1 µg/mL) in experiment [9]. For the same compound, the IC50 in experiment [3] is around 1.6 µM.

As for `Clc1cccc(COc2ccccc2CNCc2cccnc2)c1`, the IC50 in [3] was found to be 4.2 µM. The MIC in experiment [4] was above 62.5 µM; in [15], 7.9 µg/mL; in [5], above 62.5 µM; in experiment [6] it was above 62.5 µM; in experiment [8] it was above 62.5 µM; in experiment [9] it was 100 µM (≈ 33.9 µg/mL).

For `Clc1cccc(COc2ccccc2CNCc2ccncc2)c1`, the MIC in [2] was 62.5 µM (≈ 21.2 µg/mL); in experiment [4] it was above 62.5 µM; in [5], above 62.5 µM; in experiment [6] it was above 62.5 µM; in experiment [7], above 62.5 µM; in experiment [8], 31.3 µM (≈ 10.6 µg/mL). In addition, the MIC came out at 2.5 µg/mL in experiment [16] and 100 µM (≈ 33.9 µg/mL) in experiment [9]. In addition, the IC50 in experiment [3] was 8.9 µM.

For `Clc1ccc(COc2ccccc2CNCc2ccncc2)cc1`, the MIC in experiment [2] was 31.3 µM (≈ 10.6 µg/mL); in experiment [17], below 1.25 µg/mL; in experiment [4] it was 31.3 µM (≈ 10.6 µg/mL); in [18] it was above 10 µM; in experiment [5] it was 31.3 µM (≈ 10.6 µg/mL); in [19], above 10 µg/mL. For the same compound, the MIC in experiment [6] was above 62.5 µM; in experiment [21] it was below 1.25 µM; in experiment [8], above 62.5 µM; in experiment [9] it was 50 µM (≈ 16.9 µg/mL). This compound came in with an IC50 in [3] of 1.4 µM. In experiment [20], the Ki was 1.04 µM.

For the origin of these results see ChEMBL document CHEMBL5346863, “Discovery of substituted benzyloxy-benzylamine inhibitors of acetyltransferase Eis and their anti-mycobacterial activity” (Eur J Med Chem, 2022).
